SMILES strings stand for the structures.

The data set is described as follows: gradient 5% acetonitrile 3 min, to 50% in 2 min, to 85% in 15 min, held 3 min, 100 µL/min. The settings on record: column: Zorbax Extend-C18 2.1 x 50 mm; eluents: water / acetonitrile, 0.1% formic acid. A digest of the protocol:
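Using water and acetonitrile that each contained 0.1% formic acid, mixtures of ~100 pure standards were separated at 100 μL/min on a Zorbax Extend-C18 column (2.1 × 50 mm, 1.8 μm). The HPLC fed a quadrupole time-of-flight mass spectrometer working in positive and negative ionization mode, with dead and dwell volumes of 40 μL and 900 μL. Data were acquired over 3 months. Retention time was read from computationally picked adduct peaks after manual inspection of each.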
For the compound `CCc1ccccc1N1C(=O)CN(S(C)(=O)=O)CC1(C)C(=O)NCc1ccccc1` (centres undefined), the RP-LC retention time came out at 804 s.

Consider `COCc1nc(-c2ccc(OC3CN(C(=O)NC(C)C)C3)cc2)no1`, for which the RP-LC retention time was 773 s. Next, `O=C(C1CC1)N1CCc2sc(S(=O)(=O)NCc3ccccc3Cl)cc2C1`: 855 s; `CC(C)n1cnc(S(=O)(=O)N2CCC(C(=O)NCc3ccccc3)CC2)c1`: 712 s; `COc1ccc(NC(=O)C2CCN(S(=O)(=O)c3ccc4c(c3)sc(=O)n4C)CC2)c(OC)c1`: 840 s. Next, `Cc1ccc(-c2ccnc3nc(-c4ccccc4)nn23)cc1`: 1020 s; `O=C(NCc1ccccc1)c1cn(-c2ccc(NC(=O)C3CC3)cn2)cn1`: 725 s; `CCn1c(=O)n(-c2ccc(F)cc2)c2nc(-c3ccc(F)c(F)c3)nc(C(N)=O)c21`: 1050 s. `c1ccc2c(OCc3nc4ccccc4[nH]3)cccc2c1` showed an RP-LC retention time of 626 s. Next, `O=C1CCCCC(Cc2ccccc2)(C(=O)Nc2cccnc2)N1` (centres undefined): 623 s; `COc1ccc(NC(=O)N2c3ccccc3CC2c2nc(C3CC3)no2)cc1OC` (centres undefined): 933 s; `O=C(CCc1conc1-c1cccc(F)c1)NCc1ccc(F)cc1`: 899 s.

For `COc1ccc(CCc2nc3nccc(-c4ccc(F)cc4)n3n2)cc1OC`, the RP-LC retention time came out at 865 s. The value for `O=C(Cc1cccnc1)N1CCCn2nc(-c3ccc(F)cc3)cc2C1` was 537 s; that for `COc1ccc(CNC(=O)c2cn3ccc(C)cc3n2)c(OC)c1` was 730 s; that for `CN(CC1CCCO1)C1CCN(C(=O)C2CCN(c3ccc(-c4cccs4)nn3)CC2)CC1` (centres undefined) was 567 s. The value for `Cc1cc(NC2CCCCC2)nc(-n2nc(C)cc2C)n1` was 850 s; that for `O=C(N1CC(c2nc(-c3cccs3)no2)C1)C1(c2ccccc2)CCOCC1` was 814 s; that for `CCn1cnc2ccc(-c3noc(Cc4ccc(Cl)cc4)n3)cc21` was 774 s.

`O=C(NCc1ccc(F)cc1)Nc1cnc2c(c1)CCC2` showed an RP-LC retention time of 531 s. The value for `CCOC(=O)C1=C(CN2CCC(C(=O)OCC)CC2)NC(=O)NC1c1ccc(Cl)cc1` (centres undefined) was 673 s; that for `CC(C)C(=O)NCC12CCCC=C1N(C)C(=O)CC2` (centres undefined) was 660 s; that for `Cc1[nH]c(C(=O)N2CCN(c3cccc(Cl)c3)CC2)c(C)c1S(=O)(=O)N1CCOCC1` was 883 s. Compound `O=C(NCc1cccs1)c1cc(=O)c(OCc2ccccc2)co1` had an RP-LC retention time of 727 s. As for `CCc1noc(NC(C)=O)c1-c1ccc(C)c(S(=O)(=O)Nc2c(C)cccc2C)c1`, the RP-LC retention time is 861 s. Next, `CCNC(=O)CCc1nc2ccccc2n(CC(=O)Nc2ccccc2OCC)c1=O`: 775 s; `CCOc1ccc(N2CC(c3nc(-c4ccccc4Cl)no3)CC2=O)cc1` (centres undefined): 1000 s; `CCCNC(=O)C1CCCN(c2ccc(SCC(=O)Nc3ccc(S(C)(=O)=O)cc3)nn2)C1` (centres undefined): 614 s. Next, `COc1cc(OC)cc(-c2nc(-c3cccc(-c4ccnn4C)c3)no2)c1`: 1160 s; `CCc1ccc(C2=C(C)C(N3CCCN(C(=O)NC(C)C)CC3)=NS2(=O)=O)cc1`: 849 s; `CCOC(=O)c1noc2ncnc(Nc3cc(Cl)ccc3OC)c12`: 1080 s. Next, `Cc1ccc2c(Nc3cccc(C(C)C)c3)c(C(=O)N3CCCC(C)C3)cnc2n1` (centres undefined): 722 s; `O=C(CSc1ccc(-c2ccco2)nn1)Nc1ccc(F)cc1F`: 788 s; `CCCn1cc(C(=O)Nc2ccc3c(c2)OCO3)c(=O)c2ccc(C)nc21`: 1100 s. `O=C(NC(c1ccccc1)c1nnc(N2CCCC2)o1)c1cccc(Cl)c1` (centres undefined) came in with an RP-LC retention time of 867 s. With `CCCN(CC1CCOC1)C(=O)c1cccc(Cl)c1` (centres undefined), the RP-LC retention time worked out at 814 s. Next, `CC1(C(=O)NCc2ccccc2)CN(S(=O)(=O)c2ccccc2)CC(=O)N1CCC1=CCCCC1` (centres undefined): 1090 s; `COc1cc(Nc2nc(C(=O)N3CCCCC3)cc3occc23)cc(OC)c1OC`: 808 s; `O=C(NC1CCCCCC1)C1CCCN(S(=O)(=O)c2c[nH]c(C(=O)N3CCCC3)c2)C1` (centres undefined): 815 s. Consider `CC(C)CCNC(=O)C1CCN(Cc2cc3ccccc3n2Cc2ccccc2Cl)CC1`, for which the RP-LC retention time came out at 829 s. `CCNc1cc(N2CCC(CCC(=O)N3CCN(c4ncccn4)CC3)CC2)ncn1` gave an RP-LC retention time of 626 s. `CCOc1ccccc1C1CC(=O)Nc2c(S(=O)(=O)c3ccccc3)csc21` (centres undefined) displayed an RP-LC retention time of 1010 s. The value for `CC(C)NC(=O)N1CCCC(c2cccc(C(=O)NCc3cccs3)c2)C1` (centres undefined) was 799 s. On to `CC(=O)Nc1ncncc1N1CCC(C(=O)NCc2cccc(C(F)(F)F)c2)CC1`, for which the RP-LC retention time amounted to 698 s. `Cc1c(NC(=O)c2ccc([N+](=O)[O-])cc2Cl)c(=O)n(-c2ccccc2)n1C` returned an RP-LC retention time of 652 s. Next, `COc1ccc2c(CCNC(=O)COc3ccc(Cl)cc3)c[nH]c2c1`: 879 s; `Cn1cnc2c(C(=O)Nc3cccc(C(F)(F)F)c3)nn(-c3ccccc3)c2c1=O`: 970 s. Next, `NS(=O)(=O)c1ccc(NC(=O)C2CCCN(c3ncnc4c3nc3n4CCCCC3)C2)cc1` (centres undefined): 659 s; `Cc1ccc(NC(=O)C2CCCN(C(=O)C3Sc4ccccc4NC3=O)C2)cc1C` (centres undefined): 862 s; `COc1ccc(Cl)cc1S(=O)(=O)N1CCC(c2noc(-c3ccccc3)n2)CC1`: 1130 s. Next, `O=C(Cc1c[nH]c2ccccc12)N1CCCN(C2CCN(CC3CC3)C2=O)CC1` (centres undefined): 610 s; `O=C(Nc1ccc(F)cc1)C(=O)c1ccc[nH]1`: 821 s. `O=C(c1ccnc(N2CCNC(c3ccccc3)C2)c1)N1CCCN(c2ncccn2)CC1` (centres undefined) gave an RP-LC retention time of 596 s. Next, `COc1ccccc1C(=O)N1CCC2(CC1)NC(=O)c1ccc(F)cc1N2C`: 725 s.

Regarding `Cc1cc(N2CCCCC2)nc(NCCNC(=O)Cc2noc3ccccc23)n1`, the RP-LC retention time amounted to 580 s. `O=C(COc1ccccc1Cl)NCCCn1nc(-c2ccc(F)cc2)ccc1=O` showed an RP-LC retention time of 807 s. `Cc1nc(-c2noc(-c3ccccc3)n2)cn1CC(=O)NCc1ccc(F)c(Cl)c1` registered an RP-LC retention time of 866 s. As to `Cc1ccc(CNC(=O)C2(C)CN(S(C)(=O)=O)CC(=O)N2c2cccc(Cl)c2)cc1` (centres undefined), the RP-LC retention time worked out at 854 s. The value for `CC(C)c1cccc2sc(NC(=O)C3CCCN(S(C)(=O)=O)C3)nc12` (centres undefined) was 965 s.

The values are drawn from the METLIN SMRT retention time set (Domingo-Almenara et al. 2019).
